In patent US20060035932A1, “N-aryl piperidine compounds” (Propharmacon, Inc., priority 2004, published 2006):

These compounds were tested against T1, binding of recombinant macrophage-tropic strain JR-FL gp120 to immobilized recombinant CD4 (Homo sapiens, UniProt P01730) (assay: gp120/CD4 binding assay (DELFIA competition assay, europium-labeled gp120, immobilized CD4)). Conditions: control substances used in optimizing the binding assay.
T1 construct: human CD4 (comprised of amino acids 1-371); made in house; host or cells: Sf9 insect cells, baculovirus vector pAcGP67
Set-up: species or system HIV (strain JR-FL) gp120; human CD4
Source text: Coding sequences for gp120 (macrophage-tropic strain JR-FL) and human CD4 (comprised of amino acids 1-371) were sub-cloned into the commercial baculovirus expression vector pAcGP67 (Pharmingen, San Diego, Calif.). The recombinant vectors were then transfected into Sf9 insect cell monolayers using the Baculogold™ transfection system. Clones were isolated by the method of limited dilution.
For large-scale production, cell culture was scaled up in 8-liter spinner flasks of Sf9 cells adapted to serum-free growth conditions, then infected by baculovirus using an MOI of 5 and the cell supernatant was harvested 72 hours later. The yields of recombinant protein expressed for both proteins were similar; 2-5 μg/ml (micrograms per milliliter). Recombinant CD4 protein was immunopurified using an affinity-column of immobilized Anti-CD4 D1 mAb Leu3a (Dalgleish, A. G., et al., Lancet, 2:1047-1050 1987) and gp120 protein was immunopurified using a resin coupled with Propharmacon monoclonal antibody PPC3G6 produced in-house (mouse IgG2) against Sf9-produced gp120. Protein purity and molecular weight were assessed using reduced and non-reduced SDS PAGE.
The identification of inhibitors was carried out by a competition assay utilizing recombinant macrophage-tropic strain JR-FL gp120, which competes with a prospective inhibitor to bind to immobilized recombinant CD4. The amount of gp12O binding to CD4 was quantitated by DELFIA “Dissociation Enhanced Lanthanide Fluoroimmunoassay” (Paterson, N., et al., Ann. Clin Biochem., 22, 606-611, 1985), having previously labeled the gp120 with a commercial europium chelate (Wallac Oy, Turku, Finland). The final readout uses time-resolved fluorescence to quantitate the amount of dissociated europium metal present. Binding of labeled gp120 was saturable and yielded an IC50 of 3 nM, which approximates literature values (Lasky, L. A., et al., Cell, 50, 975-985). In addition, the binding of gp120 was inhibited by Leu3a with an IC50 of 2 μg/ml. […] The assay is optionally adapted to 384-well format for screening purposes.

Row | SMILES | IC50, inhibition of binding of gp120 to immobilized CD4
1 | CC(C)CCC[C@@H](C)[C@H]1CC[C@H]2[C@@H]3CC[C@H]4C[C@@H](CCC=C(c5cc(Cl)c(O)c(C(=O)O)c5)c5cc(Cl)c(O)c(C(=O)O)c5)CC[C@]4(C)[C@H]3CC[C@]12C [cosalane, reference compound] | 4.3 µg/mL

Same assay, conditions: control substances used in optimizing the binding assay; read-out: IC50, inhibition of binding of gp120 to immobilized CD4 (converted)

Row | SMILES | IC50
2 | O=C(O)C1=CC(=C(c2ccc(O)c(C(=O)O)c2)c2ccc(O)c(C(=O)O)c2)C=CC1=O [aurintricarboxylic acid, reference compound] | 1180 nM

Same assay, conditions: gp120/CD4 binding assay; read-out: Activity (IC50 level in the gp120/CD4 binding assay)

Row | SMILES | IC50
3 | O=C(O)[C@H](Cc1ccccc1)NS(=O)(=O)c1cnc(N2CCC(CCCCCC3CCN(S(=O)(=O)c4cc(Br)c(Cl)s4)CC3)CC2)c(Br)c1 | < 1000 nM
4 | O=C(O)CN(CCc1ccc(F)cc1)S(=O)(=O)c1cnc(N2CCC(CCCC3CCN(S(=O)(=O)c4cc(Br)c(Cl)s4)CC3)CC2)c(Br)c1 | < 1000 nM
5 | O=C(NCCCCC(NS(=O)(=O)c1cnc(N2CCC(CCCC3CCN(S(=O)(=O)c4cc(Br)c(Cl)s4)CC3)CC2)c(Br)c1)C(=O)O)OCc1ccccc1Cl (stereo not shown) | < 1000 nM
6 | O=C(O)[C@H](Cc1ccccc1)NS(=O)(=O)c1cnc(N2CCC(CCCCCCCC3CCN(S(=O)(=O)c4cc(Br)c(Cl)s4)CC3)CC2)c(Br)c1 | < 1000 nM
7 | O=C(O)CC1Cc2ccccc2CN1S(=O)(=O)c1cnc(N2CCC(CCCCC3CCN(S(=O)(=O)c4cc(Br)c(Cl)s4)CC3)CC2)c(Br)c1 (stereo not shown) | < 1000 nM
8 | O=C(O)C1(NS(=O)(=O)c2cnc(N3CCC(CCCC4CCN(S(=O)(=O)c5cc(Br)c(Cl)s5)CC4)CC3)c(Br)c2)CCCCC1 | < 1000 nM
9 | O=C(O)[C@H](Cc1ccccc1)NS(=O)(=O)c1cnc(N2CCC(CCCCC3CCN(S(=O)(=O)c4cc(Br)c(Cl)s4)CC3)CC2)c(C(F)(F)F)c1 | 1000 to 10000 nM
10 | O=C(O)C[C@@H]1CCCN1S(=O)(=O)c1cnc(N2CCC(CCCC3CCN(S(=O)(=O)c4cc(Br)c(Cl)s4)CC3)CC2)c(Br)c1 | 1000 to 10000 nM
11 | O=C(O)[C@H](Cc1ccc(Cl)cc1)NS(=O)(=O)c1cnc(N2CCC(CCCCCC3CCN(S(=O)(=O)c4cc(Br)c(Cl)s4)CC3)CC2)c(Br)c1 | 1000 to 10000 nM
12 | O=C(O)[C@H](Cc1ccccc1)NS(=O)(=O)c1ccc(N2CCC(CCCC3CCN(S(=O)(=O)c4cc(Br)c(Cl)s4)CC3)CC2)c(Cl)c1 | 1000 to 10000 nM
13 | CSCC[C@H](NS(=O)(=O)c1ccc(N2CCC(CCCC3CCN(S(=O)(=O)c4ccc(C(C)(C)C)cc4)CC3)CC2)c(Cl)c1)C(=O)O | 1000 to 10000 nM
14 | O=C(O)[C@@H]1CC[C@H](NS(=O)(=O)c2ccc(N3CCC(CCCC4CCN(S(=O)(=O)c5ccc(F)cc5)CC4)CC3)c(Cl)c2)C1 | > 10000 nM
15 | O=C(NO)[C@H]1CC[C@H](NS(=O)(=O)c2ccc(N3CCC(CCCC4CCN(S(=O)(=O)c5cc(Br)c(Cl)s5)CC4)CC3)c(Cl)c2)C1 | > 10000 nM
16 | O=S(=O)(c1cnc(N2CCC(CCCC3CCN(S(=O)(=O)c4c(Cl)ccc5nonc45)CC3)CC2)c(Br)c1)N1CCCNCC1 | > 10000 nM
